Laboratory results reported in patent publication US9345706B2, “Benzoxazole kinase inhibitors and methods of use” (Intellikine LLC, priority 2008, dated 2016).

Key:
[1] = test system: HCT116 cells or SW620 cells; test: Cell cycle progression, G0/G1 arrest; type: cell-based; conditions: compared to an inhibitor that inhibits one or more PI3-kinases
Description: FIG. 9A-9B depict the effects of a compound of Table 1 of the present invention on cell cycle progression in HCT116 and SW620 cells as compared to various other compounds. FIG. 9A depicts the inhibiting effect of the compound at 500 nM on cell cycle progression as compared to DMSO vehicle control and as compared to 10 uM doxorubicin. FIG. 9B depicts the effect of the indicated compounds on the population of cells residing in G0/G1 phase during culture for two different cell lines.
In some embodiments, one or more compounds of the invention including those in Table 1 may cause cell cycle arrest. […] In some cases, about 35%, 40%, 50%, 55%, 60%, 65%, 70% or more of cells treated with one or more compounds of the invention may be in the G0/G1 cell cycle stage.

xenograft tumors = test: Tumor volume of xenograft tumors in female nude athymic mice; type: in vivo, mouse; conditions: U87-MG, A549, ZR-75-1, or 786-0 tumor cells
Description: For example, treatment with one or more compounds of the invention results in a reduction in the growth or tumor volume caused by engraftment of U87-MG, A549, ZR-75-1, or 786-0 tumor cells in nude mice. The compounds of the invention may be administered orally, subcutaneously, or intravenously, or any other compound administration methods provided herein. In some cases, the compounds are administered once a week, every other day, once a day, twice a day, three times a day, four times a day or more. In some cases, 0.01 mg/kg of compound is administered, 0.05 mg/kg, 0.1 mg/kg, 0.2 mg/kg, 0.4 mg/kg, 0.5 mg/kg, 1 mg/kg, 1.5 mg/kg, 2 mg/kg, 3 mg/kg, 4 mg/kg, 5 mg/kg, 7.5 mg/kg, 10 mg/kg, 100 mg/kg or more compound is administered at a time. In some cases, a significant reduction in tumor volume may be detected within 5, 10, 15, 20, 25, or 30 days of tumor engraftment.
Mice are inoculated subcutaneously in the right flank with 0.01 to 0.5 ml of tumor cells such as those listed above (approximately 1.0×10^5 to 1.0×10^8 cells/mouse). Five to 10 days following inoculation, tumors are measured using calipers and tumor weight is calculated, for example using the animal study management software, such as Study Director V.1.6.70 (Study Log). […] Body weights are recorded when the mice are pair-matched. […]

PI3K α = target: T1, PI3K α (Homo sapiens, UniProt P42336); test: PI3K α kinase inhibition assay; type: biochemical
T1 construct: purchased Upstate
T1 sequence (P42336 whole entry): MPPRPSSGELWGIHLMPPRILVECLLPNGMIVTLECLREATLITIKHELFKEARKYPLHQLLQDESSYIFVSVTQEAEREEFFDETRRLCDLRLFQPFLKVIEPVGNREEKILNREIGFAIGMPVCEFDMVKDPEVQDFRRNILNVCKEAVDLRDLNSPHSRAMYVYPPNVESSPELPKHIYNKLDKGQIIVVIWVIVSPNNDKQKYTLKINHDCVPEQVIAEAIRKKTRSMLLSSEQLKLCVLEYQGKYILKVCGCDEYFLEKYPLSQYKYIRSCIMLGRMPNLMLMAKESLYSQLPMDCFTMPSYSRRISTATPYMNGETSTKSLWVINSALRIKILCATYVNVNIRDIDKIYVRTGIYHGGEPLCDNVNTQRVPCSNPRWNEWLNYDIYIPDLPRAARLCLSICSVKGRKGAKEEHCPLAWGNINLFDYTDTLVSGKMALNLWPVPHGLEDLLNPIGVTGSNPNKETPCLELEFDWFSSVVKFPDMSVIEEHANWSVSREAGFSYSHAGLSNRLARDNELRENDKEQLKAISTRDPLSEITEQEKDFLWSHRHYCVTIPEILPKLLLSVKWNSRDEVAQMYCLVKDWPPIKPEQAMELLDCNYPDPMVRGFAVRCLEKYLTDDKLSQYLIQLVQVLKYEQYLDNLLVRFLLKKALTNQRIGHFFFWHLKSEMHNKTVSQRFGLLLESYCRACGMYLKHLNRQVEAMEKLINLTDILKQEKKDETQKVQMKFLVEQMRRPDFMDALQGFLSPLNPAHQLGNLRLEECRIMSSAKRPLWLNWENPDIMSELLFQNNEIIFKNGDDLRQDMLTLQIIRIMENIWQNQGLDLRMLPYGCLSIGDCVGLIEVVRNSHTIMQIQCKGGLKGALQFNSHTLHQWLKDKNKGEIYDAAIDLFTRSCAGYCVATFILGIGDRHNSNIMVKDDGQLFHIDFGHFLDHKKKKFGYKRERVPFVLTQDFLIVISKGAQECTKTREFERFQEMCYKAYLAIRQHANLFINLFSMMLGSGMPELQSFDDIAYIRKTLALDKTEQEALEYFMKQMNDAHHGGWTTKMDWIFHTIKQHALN
T1 sequence (P27986 whole entry partner): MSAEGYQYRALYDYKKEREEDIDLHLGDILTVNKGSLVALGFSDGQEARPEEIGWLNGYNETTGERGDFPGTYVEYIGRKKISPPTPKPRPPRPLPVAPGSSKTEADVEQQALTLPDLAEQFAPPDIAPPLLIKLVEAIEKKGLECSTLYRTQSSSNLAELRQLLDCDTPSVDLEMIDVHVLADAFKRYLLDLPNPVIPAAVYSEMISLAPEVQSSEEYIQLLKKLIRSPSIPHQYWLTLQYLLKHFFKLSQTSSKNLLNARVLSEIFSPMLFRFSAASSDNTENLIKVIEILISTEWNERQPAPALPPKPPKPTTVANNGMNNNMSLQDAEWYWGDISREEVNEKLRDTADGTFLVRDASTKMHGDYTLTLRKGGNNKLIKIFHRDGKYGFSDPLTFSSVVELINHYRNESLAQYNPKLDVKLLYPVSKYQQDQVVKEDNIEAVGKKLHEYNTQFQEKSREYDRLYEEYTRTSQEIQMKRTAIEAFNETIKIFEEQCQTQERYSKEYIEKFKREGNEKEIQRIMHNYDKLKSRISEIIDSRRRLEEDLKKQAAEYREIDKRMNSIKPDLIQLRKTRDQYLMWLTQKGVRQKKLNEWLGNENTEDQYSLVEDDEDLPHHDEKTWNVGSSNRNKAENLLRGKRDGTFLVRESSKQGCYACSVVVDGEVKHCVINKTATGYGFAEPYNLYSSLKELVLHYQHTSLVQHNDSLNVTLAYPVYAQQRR

Compound	degree of G0/G1 arrest [1]	tumor volume of xenograft tumors (xenograft tumors)	IC50 (PI3K α)
CC(C)n1nc(-c2ccc3oc(N)nc3c2)c2c(N)ncnc21 [compound 1]	comparable or a greater degree of G0/G1 arrest	cause a reduction in tumor volume of xenograft tumors	
COC(=O)Nc1noc2ccc(-c3nn(C(C)C)c4ncnc(N)c34)cc12 [compound 19]			> 10 µM
COC(=O)Nc1noc2cc(-c3nn(C(C)C)c4ncnc(N)c34)ccc12 [compound 20]			< 10 µM
